Assays:
Test in all cases: relative viability (nuclei count vs DMSO), 5 days (fraction); higher = more cells survive
Idelalisib + Tozasertib = compound: CC[C@H](Nc1ncnc2[nH]cnc12)c1nc2cccc(F)c2c(=O)n1-c1ccccc1 [Idelalisib] + Cc1cc(Nc2cc(N3CCN(C)CC3)nc(Sc3ccc(NC(=O)C4CC4)cc3)n2)n[nH]1 [Tozasertib] (partner 0.1 µM)
Summary of the method: (§1)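 Lung cancer cell lines in 1536-well plates got either a single drug or a fixed anchor-drug dose together with five library-drug doses (not always all listed) in √10 steps, by pin tool, on the day after seeding. Nuclei were counted after 5 days, and relative viability is the treated-to-vehicle ratio of nuclei counts. Values are medians of duplicate plates.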

Pemetrexed + Lapatinib = compound: Nc1nc2[nH]cc(CCc3ccc(C(=O)N[C@@H](CCC(=O)O)C(=O)O)cc3)c2c(=O)[nH]1 [Pemetrexed] + CS(=O)(=O)CCNCc1ccc(-c2ccc3ncnc(Nc4ccc(OCc5cccc(F)c5)c(Cl)c4)c3c2)o1 [Lapatinib] (partner 2 µM)
Summary of the method: as §1

Idelalisib + Dasatinib = compound: CC[C@H](Nc1ncnc2[nH]cnc12)c1nc2cccc(F)c2c(=O)n1-c1ccccc1 [Idelalisib] + Cc1nc(Nc2ncc(C(=O)Nc3c(C)cccc3Cl)s2)cc(N2CCN(CCO)CC2)n1 [Dasatinib] (partner 0.075 µM)
Summary of the method: as §1

Pemetrexed + Foretinib = compound: Nc1nc2[nH]cc(CCc3ccc(C(=O)N[C@@H](CCC(=O)O)C(=O)O)cc3)c2c(=O)[nH]1 [Pemetrexed] + COc1cc2c(Oc3ccc(NC(=O)C4(C(=O)Nc5ccc(F)cc5)CC4)cc3F)ccnc2cc1OCCCN1CCOCC1 [Foretinib] (partner 0.25 µM)
Summary of the method: as §1

Cell Line	relative viability (Idelalisib + Tozasertib; first compound 0.04 µM)	relative viability (Idelalisib + Tozasertib; first compound 0.1265 µM)	relative viability (Idelalisib + Tozasertib; first compound 0.4 µM)	relative viability (Idelalisib + Tozasertib; first compound 1.265 µM)	relative viability (Idelalisib + Tozasertib; first compound 4 µM)	relative viability (Pemetrexed + Lapatinib; first compound 0.002 µM)	relative viability (Pemetrexed + Lapatinib; first compound 0.006325 µM)	relative viability (Pemetrexed + Lapatinib; first compound 0.02 µM)	relative viability (Pemetrexed + Lapatinib; first compound 0.06325 µM)	relative viability (Pemetrexed + Lapatinib; first compound 0.2 µM)	relative viability (Idelalisib + Dasatinib; first compound 0.04 µM)	relative viability (Idelalisib + Dasatinib; first compound 0.1265 µM)	relative viability (Idelalisib + Dasatinib; first compound 0.4 µM)	relative viability (Idelalisib + Dasatinib; first compound 1.265 µM)	relative viability (Idelalisib + Dasatinib; first compound 4 µM)	relative viability (Pemetrexed + Foretinib; first compound 0.002 µM)	relative viability (Pemetrexed + Foretinib; first compound 0.006325 µM)	relative viability (Pemetrexed + Foretinib; first compound 0.02 µM)	relative viability (Pemetrexed + Foretinib; first compound 0.06325 µM)	relative viability (Pemetrexed + Foretinib; first compound 0.2 µM)
BEN	0.479	0.562	0.542	0.488	0.413	0.811	0.594	0.817	0.663	0.624	0.305	0.318	0.32	0.364	0.31	0.739	0.739	0.83	0.615	0.726
NCI-H2009	0.736	0.852	0.667	0.756	0.567	0.745	0.871	0.999	0.905	0.915	0.335	0.302	0.266	0.252	0.197	1.2	1.28	1.29	1.2	1.11
LC-2-ad	0.44	0.455	0.374	0.397	0.457	0.747	1.01	1.01	0.27	0.179	0.583	0.48	0.424	0.626	0.519	0.818	0.946	0.526	0.296	0.284
NCI-H1437	0.333	0.43	0.411	0.384	0.397	0.364	0.777	0.799	0.463	0.232	0.378	0.46	0.307	0.453	0.478		1.2	1.07	0.796	0.413
NCI-H3122	0.377	0.372	0.41	0.4	0.399	1.01	1.02	1.02	0.97	0.847	0.646	0.55	0.552	0.817	0.467	0.931	0.972	0.973	0.973	0.72
NCI-H727	0.669	0.533	0.713	0.652	0.559	0.802	0.825	0.634	0.844	0.773	0.461	0.397		0.353	0.386	0.823	0.902	0.87	0.838	0.966
NCI-H1734	0.264	0.246	0.253	0.254	0.246	0.724	0.995	1.13	1.01	0.525	0.468	0.487	0.338	0.454	0.374	0.871	0.77	0.976	0.794	0.532

Reference: the supplement of paper PMC10307832
